The results in this text go back to patent publication US12686690B2, “Macrocyclic urea orexin receptor agonists” (Merck Sharp & Dohme LLC, priority 2020, dated 2026).

Usually EC50 stands for the concentration giving half of the maximal effect.

The test addresses T1, hOX2R (Homo sapiens, UniProt O43614).
T1 construct: expressed in transfected cells; host or cells: CHO cells (G418 selection)
T1 sequence (O43614 1-444): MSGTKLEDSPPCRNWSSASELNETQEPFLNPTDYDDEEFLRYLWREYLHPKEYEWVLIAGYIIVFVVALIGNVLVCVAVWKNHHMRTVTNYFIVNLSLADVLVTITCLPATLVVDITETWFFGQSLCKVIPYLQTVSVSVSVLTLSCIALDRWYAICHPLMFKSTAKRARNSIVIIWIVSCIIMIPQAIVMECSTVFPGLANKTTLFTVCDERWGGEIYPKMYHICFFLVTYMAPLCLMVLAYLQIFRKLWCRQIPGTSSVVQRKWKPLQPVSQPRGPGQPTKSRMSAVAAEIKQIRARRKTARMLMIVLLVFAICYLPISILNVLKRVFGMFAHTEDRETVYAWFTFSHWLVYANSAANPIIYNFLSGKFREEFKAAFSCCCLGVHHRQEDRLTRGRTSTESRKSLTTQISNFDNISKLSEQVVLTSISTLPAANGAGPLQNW
The experiment in a line: hOX2R IPone assay (orexin receptor agonism). Type of test: cell-based. As to conditions: IPone readout; for hOX2R_Ipone max %act: maximal activation; for EC50: orexin receptor agonist, read-out: hOX2R_IPone EC50.

Each structure is given as a SMILES string.

For the molecule `CCN1C(=O)N[C@@H](CCC(F)(F)F)CCCCOc2nc(cn3cc(C)nc23)-c2cc(ncc2OC)C1C(F)(F)F` (single isomer, unassigned) [Example 36B], the hOX2R_Ipone max %act was 101.5% and the EC50 worked out at 8.9 nM.
For the molecule `CCN1C(=O)N[C@@H](C(F)(F)F)CCCCOc2nc(cn3ccnc23)-c2cc(ncc2OC)C1C(F)(F)F` (single isomer, unassigned) [Example 39A], the hOX2R_Ipone max %act was 97.7% and the EC50 was found to be 60.5 nM.
The corresponding values for `CCN1C(=O)N[C@@H](C(F)(F)F)CCCCOc2nc(cn3ccnc23)-c2cc(ncc2OC)C1C(F)(F)F` (single isomer, unassigned) [Example 39B] are 97.5% and 1060 nM.
The corresponding values for `CCN1C(=O)NC(CCC(F)(F)F)C(C)/C=C\COc2nc(cn3ccnc23)-c2cccc(c2)[C@H]1C` (single isomer, unassigned) [Example 41A] are 100.9% and 115 nM.
The corresponding values for `CCN1C(=O)NC(CCC(F)(F)F)C(C)/C=C\COc2nc(cn3ccnc23)-c2cccc(c2)[C@H]1C` (single isomer, unassigned) [Example 41B] are 100.4% and 21.3 nM.
For `CCN1C(=O)NC(CCC(F)(F)F)C(C)/C=C\COc2nc(cn3ccnc23)-c2cccc(c2)[C@H]1C` (single isomer, unassigned) [Example 41C], the hOX2R_Ipone max %act is 98.9% and the EC50 amounted to 23.4 nM.
For `CCN1C(=O)NC(CCC(F)(F)F)C(C)CCCOc2nc(cn3ccnc23)-c2cccc(c2)[C@H]1C` (single isomer, unassigned) [Example 42A], the hOX2R_Ipone max %act is recorded as 100.6% and the EC50 is 6.6 nM.
Taken in the same sequence, the figures for `CCN1C(=O)NC(CCC(F)(F)F)C(C)CCCOc2nc(cn3ccnc23)-c2cccc(c2)[C@H]1C` (single isomer, unassigned) [Example 42B] were 99.1% and 156 nM.
Taken in the same sequence, the figures for `CCN1C(=O)NC(CCC(F)(F)F)C(C)CCCOc2nc(cn3ccnc23)-c2cccc(c2)[C@H]1C` (single isomer, unassigned) [Example 42C] were 99.7% and 8.6 nM.
The corresponding values for `CCN1C(=O)NC(CCC(F)(F)F)C(C)CCCOc2nc(cn3ccnc23)-c2cccc(c2)[C@H]1C` (single isomer, unassigned) [Example 42D] are 98.8% and 3.6 nM.
On to `CCN1C(=O)NC(CCC(F)(F)F)CC(C)CCOc2nc(cn3ccnc23)-c2cccc(c2)[C@H]1C` (single isomer, unassigned) [Example 48A], for which the hOX2R_Ipone max %act was 99.4% and the EC50 is 4.1 nM.
The corresponding values for `CCN1C(=O)NC(CCC(F)(F)F)CC(C)CCOc2nc(cn3ccnc23)-c2cccc(c2)[C@H]1C` (single isomer, unassigned) [Example 48B] are 99.9% and 88.8 nM.
In the case of `CCC1CCCCCOc2nc(cn3ccnc23)-c2cc(ncc2OC)[C@@H](C)N(CC)C(=O)N1` (single isomer, unassigned) [Example 52A], the hOX2R_Ipone max %act is listed as 97% and the EC50 was found to be 548 nM.
For the molecule `CCC1CCCCCOc2nc(cn3ccnc23)-c2cc(ncc2OC)[C@@H](C)N(CC)C(=O)N1` (single isomer, unassigned) [Example 52B], the hOX2R_Ipone max %act came to 99.5% and the EC50 came to 4.9 nM.
Taken in the same sequence, the figures for `CCN1C(=O)NC(CC(C)C)CCCCCOc2nc(cn3ccnc23)-c2cc(ncc2OC)[C@H]1C` (single isomer, unassigned) [Example 53A] were 101.5% and 55.7 nM.
The corresponding values for `CCN1C(=O)NC(CC(C)C)CCCCCOc2nc(cn3ccnc23)-c2cc(ncc2OC)[C@H]1C` (single isomer, unassigned) [Example 53B] are 102.3% and 0.9 nM.
Taken in the same sequence, the figures for `CCCC1CCCCCOc2nc(cn3ccnc23)-c2cc(ncc2OC)[C@@H](C)N(CC)C(=O)N1` (single isomer, unassigned) [Example 54A] were 102% and 143 nM.
For the molecule `CCCC1CCCCCOc2nc(cn3ccnc23)-c2cc(ncc2OC)[C@@H](C)N(CC)C(=O)N1` (single isomer, unassigned) [Example 54B], the hOX2R_Ipone max %act was 100.7% and the EC50 amounted to 1 nM.
In the case of `CCN1C(=O)NC(CC2CC2)CCCCCOc2nc(cn3ccnc23)-c2cc(ncc2OC)[C@H]1C` (single isomer, unassigned) [Example 55A], the hOX2R_Ipone max %act came to 99.2% and the EC50 was found to be 78.9 nM.
With `CCN1C(=O)NC(CC2CC2)CCCCCOc2nc(cn3ccnc23)-c2cc(ncc2OC)[C@H]1C` (single isomer, unassigned) [Example 55B], the hOX2R_Ipone max %act amounted to 101.2% and the 50% effective concentration (EC50) stood at 0.6 nM.
Taken in the same sequence, the figures for `CCN1C(=O)NC(CCOC)CCCCCOc2nc(cn3ccnc23)-c2cc(ncc2OC)[C@H]1C` (single isomer, unassigned) [Example 56A] were 101.7% and 32 nM.
As to `CCN1C(=O)NC(CCOC)CCCCCOc2nc(cn3ccnc23)-c2cc(ncc2OC)[C@H]1C` (single isomer, unassigned) [Example 56B], the hOX2R_Ipone max %act was found to be 101% and the EC50 was found to be 1 nM.
The corresponding values for `CCN1C(=O)NC(C2CC2)CCCCCOc2nc(cn3ccnc23)-c2cc(ncc2OC)[C@H]1C` (single isomer, unassigned) [Example 57A] are 100.7% and 119 nM.
Taken in the same sequence, the figures for `CCN1C(=O)NC(C2CC2)CCCCCOc2nc(cn3ccnc23)-c2cc(ncc2OC)[C@H]1C` (single isomer, unassigned) [Example 57B] were 101.6% and 1.2 nM.
In the case of `CCN1C(=O)NC(COC)CCCCCOc2nc(cn3ccnc23)-c2cc(ncc2OC)[C@H]1C` (single isomer, unassigned) [Example 58A], the hOX2R_Ipone max %act is listed as 100.8% and the EC50 came out at 48.9 nM.
The corresponding values for `CCN1C(=O)NC(COC)CCCCCOc2nc(cn3ccnc23)-c2cc(ncc2OC)[C@H]1C` (single isomer, unassigned) [Example 58B] are 101.1% and 0.9 nM.
Taken in the same sequence, the figures for `CCN1C(=O)NC(CC2CC2(F)F)CCCCCOc2nc(cn3ccnc23)-c2cc(ncc2OC)[C@H]1C` (single isomer, unassigned) [Example 59A] were 101.6% and 4.1 nM.
As to `CCN1C(=O)NC(CC2CC2(F)F)CCCCCOc2nc(cn3ccnc23)-c2cc(ncc2OC)[C@H]1C` (single isomer, unassigned) [Example 59B], the hOX2R_Ipone max %act amounted to 100.1% and the EC50 is 3.1 nM.
Taken in the same sequence, the figures for `CCN1C(=O)NC(CC2CC2(F)F)CCCCCOc2nc(cn3ccnc23)-c2cc(ncc2OC)[C@H]1C` (single isomer, unassigned) [Example 59C] were 99.3% and 0.5 nM.
The corresponding values for `CCN1C(=O)NC(CC2CC2(F)F)CCCCCOc2nc(cn3ccnc23)-c2cc(ncc2OC)[C@H]1C` (single isomer, unassigned) [Example 59D] are 100.9% and 0.9 nM.
